The test system of one assay is HUVECs. Put plainly: Annexin V/PI flow cytometry, HUVECs. Particulars: 0.40 μM, 24 h, VEGF 20 ng·mL^−1; control 9.61; n = 3; p < 0.0001; in % (unit assumed). It is filed as cell-based, human. As to the method:
An important consequence of VEGF signals is cell survival dominantly via PI3K/AKT/mTOR pathway. Thus, inhibition of VEGF signals leads to the induction of apoptosis. Accordingly, the ability of C-VGB3 to induce apoptosis was investigated. First, apoptotic endothelial and tumor cells were analyzed by flow cytometry after staining with annexin V-FITC and PI. (Figure 6A). Treatment with C-VGB3 (0.40 μM) induced significant apoptosis in both cell lines compared to the controls. […] Apoptosis induction by C-VGB3 was further characterized by the TUNEL assay, as an indicator of late apoptosis, with a confocal microscope (Figure 6B).
Annexin V/Propidium Iodide flow cytometry was performed to investigate the C-VGB3 effect on apoptosis induction, as previously described, with some modifications. […]

For a further assay, the system named is 4T1 MCT cells. Put plainly: MTT assay, 4T1 MCT cells. It counts as cell-based, murine. The settings on record: C-VGB3 0–1.81 μM, n = 3, read-out: IC50, proliferation. The procedure:
Figure 5 Suppression of 4T1 cell proliferation and metastasis by C-VGB3 through blockade of VEGFR2 signaling pathways. (A) MTT assay was performed to investigate C-VGB3 effect on the proliferation of 4T1 tumor cells in vitro. C-VGB3 was used at concentrations 0–1.81 μM in the presence (20 ng·mL^−1) or the absence of VEGF. The control cells were treated with no peptide. After 24 and 48 h, the absorbance was measured at 570 nm utilizing an ELISA plate reader (Space Fax 2100, Awareness, Westport, CT, USA). Error bars represent ± SEM. n = 3; * p = 0.0 2, ** p = 0.001, *** and ### p = 0.0001, **** and #### p < 0.0001, ns = not significant; one-way ANOVA. (B) To evaluate the mechanism by which C-VGB3 diminished cell proliferation and metastasis, Western blot analysis was performed for 4T1 cells. […] Error bars represent ± SEM. n = 3; * p = 0.02, ** p = 0.001, *** p = 0.0001, **** p < 0.0001, ns = not significant; one-way ANOVA.
The effects of C-VGB3 and L-VGB3 on the cell survival of HUVE and 4T1 cell lines were investigated using the MTT assay, as previously described, with some modifications. […] After 24 and 48 h of incubation at 37 °C, the absorbance at 570 nm was recorded using an ELISA plate reader (Space Fax 2100, Awareness, Palm City, FL, USA). […]

A further assay concerns 4T1 cells. Put plainly: TUNEL assay, 4T1 cells. It is filed as cell-based, murine. The settings on record: 0.40 μM, n = 3, p = 0.0002. The source says: Periodic boundary conditions were used, and bonds were restrained by applying the LINCS algorithm to their equilibrium position. Initial structures were solvated with three-point model water molecules in a cubic box of 1.0 nm to fully cover the protein system in water, following periodic boundary conditions (PBC). The produced system for each peptide was neutralized through the “genion tool” plugin of the GROMACS package by adding ions Na+ and Cl−. Then, the system was minimized for 50000 iterations using the steepest descent (SD) algorithm and using velocity rescaling (modiﬁed Berendsen) temperature coupling and Parrinello-Rahman pressure coupling methods, simulated under an isothermal-isobaric ensemble (NPT) for 5 ns at a constant temperature, the pressure of 300 K, and 1 atm, respectively. The NVT and NPT equilibration was carried out for 50000 steps. The minimization and equilibration procedures were executed, and finally, one system of the peptide was subjected to a 200 ns production run of MD simulations utilizing 2 fs as the time step and coordinates of all atoms were recorded in the form of .trr GROMACS trajectory ﬁle every 10 ps.
2 × 10^3 HUVE or 4T1 cells were cultured in DMEM and RPMI-1640 media, respectively, supplemented with 10% (v/v) FBS overnight. Then, the cells were incubated in the media supplemented with 5% FBS, with PBS or C-VGB3 (0.40 μM). […]

Where two headings read alike, the source gives them in different places. Bridge positions count the residues as written; N and C are the ends. Peptide text beside a SMILES is read from it.

For `CC(C)C[C@@H]1NC(=O)CNC(=O)[C@H](CC(=O)O)NC(=O)[C@H](CC(=O)O)NC(=O)[C@@H]2CCCN2C(=O)[C@@H]2CCCN2C(=O)[C@H](CCCNC(=N)N)NC(=O)[C@@H](NC(=O)[C@@H](N)CCC(=O)O)CSSC[C@@H](C(=O)O)NC1=O` [C-VGB3] (H-ECRPPDDGLC-OH; disulfide 2-10), in the assay on HUVECs, the “level of apoptotic cells” value is listed as 56.62. The figures for the IC50 in the assay on 4T1 MCT cells (24 h) and in the assay on 4T1 MCT cells (48 h) were 560 nM and 370 nM, respectively. Also, the TUNEL fluorescent labeling result in the assay on 4T1 cells is “fluorescent-labeled more than control cells”.
